According to patent US20020035061A1, “COMPOSITIONS AND METHODS FOR TREATING INFECTIONS USING CATIONIC PEPTIDES ALONE OR IN COMBINATION WITH ANTIBIOTICS” (priority 1996, published 2002):
Like-named read-outs stand apart in the source and are kept apart here.

Key:
Format in all cases: cell-based
A. calcoaceticus = A. calcoaceticus strain AC001
E. faecalis = E. faecalis strain EFS002
K. pneumoniae = K. pneumoniae strain KP001
S. epidermidis = S. epidermidis strain SE002
bacterial isolates = test: microbe, parasite or virus in culture; details: for Peptide MIC Alone: Piperacillin section; for FIC: peptide + Piperacillin
E. faecium = E. faecium strain EFM001
S. maltophilia = S. maltophilia strain SMA001
S. pyogenes = test: Agarose dilution assay (MIC); details: S. pyogenes strain SPY006
[1] = system: inherently resistant microorganisms; test: microbe, parasite or virus in culture; details: S. aureus MRSA
E. cloacae = E. cloacae strain ECL006
H. influenzae = test: Agarose dilution assay (MIC)
E. coli = E. coli strain ECO005
S. aureus = S. aureus strain SA012
P. aeruginosa = P. aeruginosa strain PA006
S. marcescens = system: S. marcescens
S. pneumoniae = test: Agarose dilution assay (MIC)
[2] = system: microorganisms with acquired resistance; test: microbe, parasite or virus in culture; details: for Peptide MIC Alone: Piperacillin section; for FIC: peptide + Piperacillin

ILKKWPWWPWRR [MBI 11G7CN]
32 µg/mL: MIC (E. faecalis) | Piperacillin MIC + Peptide (bacterial isolates; A. calcoaceticus 3) | Peptide MIC Alone (bacterial isolates; S. aureus 18 MRSA) | MIC (S. maltophilia) | Peptide MIC + Piperacillin ([2]; A. calcoaceticus 3)
0.56: FIC (bacterial isolates; S. aureus 19 MRSA)
4 µg/mL: Peptide MIC + Piperacillin (bacterial isolates; H. influenzae SB1)
0.52: FIC (bacterial isolates; H. influenzae SB1)
16 µg/mL: MIC (K. pneumoniae) | Peptide MIC + Piperacillin (bacterial isolates; A. calcoaceticus 3) | Piperacillin MIC + Peptide (bacterial isolates; S. marcescens 1) | MIC (S. pyogenes) | Piperacillin MIC + Peptide ([2]; A. calcoaceticus 3) | Piperacillin MIC + Peptide ([2]; H. influenzae 1) | Peptide MIC + Piperacillin ([2]; S. maltophilia 2) | Piperacillin MIC + Peptide ([2]; S. maltophilia 2) | Piperacillin MIC + Peptide ([2]; S. marcescens 1)
0.5 µg/mL: Peptide MIC + Piperacillin (bacterial isolates; S. aureus 19 MRSA)
128 µg/mL: MIC (A. calcoaceticus)
0.25 µg/mL: Piperacillin MIC + Peptide (bacterial isolates; H. influenzae SB1)
0.25: FIC (bacterial isolates; S. marcescens 1) | FIC ([1]; peptide + Piperacillin) | FIC ([2]; S. marcescens 1)
64 µg/mL: Peptide MIC Alone (bacterial isolates; A. calcoaceticus 3) | Peptide MIC + Piperacillin (bacterial isolates; P. aeruginosa 7) | Piperacillin MIC + Peptide (bacterial isolates; P. aeruginosa 7) | Piperacillin MIC + Peptide (bacterial isolates; P. aeruginosa 23) | Piperacillin MIC + Peptide (bacterial isolates; S. aureus 18 MRSA) | Piperacillin MIC + Peptide (bacterial isolates; S. aureus 19 MRSA) | MIC (E. cloacae) | Peptide MIC Alone ([2]; A. calcoaceticus 3) | Peptide MIC + Piperacillin ([2]; H. influenzae 1) | Peptide MIC + Piperacillin ([2]; P. aeruginosa 7) | Piperacillin MIC + Peptide ([2]; P. aeruginosa 7) | Piperacillin MIC + Peptide ([2]; P. aeruginosa 23) | Peptide MIC Alone ([2]; S. maltophilia 2)
0.63: FIC ([2]; A. calcoaceticus 3)
0.75: FIC ([2]; H. influenzae 1) | FIC ([2]; S. maltophilia 2)
>128 µg/mL: Peptide MIC Alone (bacterial isolates; H. influenzae SB1) | Peptide MIC Alone (bacterial isolates; P. aeruginosa 7) | Peptide MIC Alone (bacterial isolates; P. aeruginosa 23) | Peptide MIC Alone (bacterial isolates; S. marcescens 1) | MIC (H. influenzae; H. influenzae strain HIN002) | MIC (H. influenzae; H. influenzae strain SBHIN2) | MIC (P. aeruginosa) | MIC (S. marcescens; S. marcescens strain SBSM1) | MIC (S. marcescens; S. marcescens strain SMS003) | MIC (S. pneumoniae; S. pneumoniae strain SBSPN2) | MIC (S. pneumoniae; S. pneumoniae strain SPN044) | Peptide MIC Alone ([2]; H. influenzae 1) | Peptide MIC Alone ([2]; P. aeruginosa 7) | Peptide MIC Alone ([2]; P. aeruginosa 23) | Peptide MIC Alone ([2]; S. marcescens 1)
0.50: FIC (bacterial isolates; A. calcoaceticus 3) | FIC (bacterial isolates; P. aeruginosa 7) | FIC (bacterial isolates; P. aeruginosa 23) | FIC (bacterial isolates; S. aureus 18 MRSA) | FIC ([2]; P. aeruginosa 7) | FIC ([2]; P. aeruginosa 23)
2 µg/mL: MIC (S. epidermidis) | Peptide MIC + Piperacillin [1] | MIC (S. aureus)
1 µg/mL: Peptide MIC + Piperacillin (bacterial isolates; P. aeruginosa 23) | Peptide MIC + Piperacillin (bacterial isolates; S. marcescens 1) | Peptide MIC + Piperacillin ([2]; P. aeruginosa 23) | Peptide MIC + Piperacillin ([2]; S. marcescens 1)
8 µg/mL: Peptide MIC + Piperacillin (bacterial isolates; S. aureus 18 MRSA) | Peptide MIC Alone (bacterial isolates; S. aureus 19 MRSA) | MIC (E. faecium) | Peptide MIC Alone ([1]; Piperacillin section) | MIC (E. coli)
